Data as given in ChEMBL document CHEMBL3991601, “The target landscape of clinical kinase drugs” (Science, 2017).
Activity calls are given as the source filed them. Rule as the data show it, for most assays here: actives have a measured Kd and inactives only a lower limit.

Tests used:
[1] = target: cAMP-dependent protein kinase catalytic subunit gamma (Homo sapiens, UniProt P22612)
Glycine--tRNA ligase = target: T1, Glycine--tRNA ligase (Homo sapiens, UniProt P41250)
T1 sequence (P41250 whole entry): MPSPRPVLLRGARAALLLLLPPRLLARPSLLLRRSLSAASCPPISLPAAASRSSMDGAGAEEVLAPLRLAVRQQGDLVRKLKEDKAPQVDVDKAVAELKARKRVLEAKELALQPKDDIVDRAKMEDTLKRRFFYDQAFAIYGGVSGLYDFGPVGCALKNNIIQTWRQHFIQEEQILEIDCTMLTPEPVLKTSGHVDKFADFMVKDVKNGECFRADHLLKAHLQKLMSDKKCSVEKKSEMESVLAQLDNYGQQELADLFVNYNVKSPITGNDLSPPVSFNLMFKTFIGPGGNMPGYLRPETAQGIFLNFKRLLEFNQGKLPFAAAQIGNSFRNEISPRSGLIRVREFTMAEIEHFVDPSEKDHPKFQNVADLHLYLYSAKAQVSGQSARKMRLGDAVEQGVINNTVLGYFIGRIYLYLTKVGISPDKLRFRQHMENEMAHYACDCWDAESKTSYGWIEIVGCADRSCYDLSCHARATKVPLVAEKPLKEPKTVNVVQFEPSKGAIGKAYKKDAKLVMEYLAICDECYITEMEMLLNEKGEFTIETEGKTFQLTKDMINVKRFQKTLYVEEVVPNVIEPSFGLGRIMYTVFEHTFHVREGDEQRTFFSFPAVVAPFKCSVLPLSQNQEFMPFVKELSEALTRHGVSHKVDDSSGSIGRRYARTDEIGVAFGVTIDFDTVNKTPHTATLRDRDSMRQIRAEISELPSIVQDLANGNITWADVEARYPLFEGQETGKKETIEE

[2] = target: Mitogen-activated protein kinase kinase kinase kinase 5 (Homo sapiens, UniProt Q9Y4K4)
Sequence of Mitogen-activated protein kinase kinase kinase kinase 5 (Q9Y4K4 whole entry): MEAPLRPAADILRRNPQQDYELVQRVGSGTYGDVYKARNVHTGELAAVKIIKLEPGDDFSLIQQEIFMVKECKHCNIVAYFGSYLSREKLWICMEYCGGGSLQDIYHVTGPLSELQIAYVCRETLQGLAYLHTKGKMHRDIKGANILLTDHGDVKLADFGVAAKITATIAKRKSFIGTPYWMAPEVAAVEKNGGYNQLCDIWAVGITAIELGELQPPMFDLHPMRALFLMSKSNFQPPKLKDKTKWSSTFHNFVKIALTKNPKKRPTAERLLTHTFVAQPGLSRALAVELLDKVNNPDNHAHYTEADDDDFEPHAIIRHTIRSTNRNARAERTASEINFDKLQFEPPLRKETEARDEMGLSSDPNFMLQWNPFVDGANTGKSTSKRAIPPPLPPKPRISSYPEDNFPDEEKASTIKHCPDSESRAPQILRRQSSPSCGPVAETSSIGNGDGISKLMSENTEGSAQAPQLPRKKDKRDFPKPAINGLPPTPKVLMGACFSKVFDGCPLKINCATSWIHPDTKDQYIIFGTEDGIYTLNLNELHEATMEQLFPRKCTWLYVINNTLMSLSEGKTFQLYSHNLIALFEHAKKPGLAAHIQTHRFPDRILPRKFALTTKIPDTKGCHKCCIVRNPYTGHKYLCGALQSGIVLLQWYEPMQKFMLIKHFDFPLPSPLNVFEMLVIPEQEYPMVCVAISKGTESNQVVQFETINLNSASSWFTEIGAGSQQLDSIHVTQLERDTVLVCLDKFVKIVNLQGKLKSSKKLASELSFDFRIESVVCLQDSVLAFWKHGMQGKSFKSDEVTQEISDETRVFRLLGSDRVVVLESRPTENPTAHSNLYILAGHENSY

[3] = target: T2, Serine/threonine-protein kinase PLK4 (Homo sapiens, UniProt O00444)
T2 sequence (O00444 whole entry): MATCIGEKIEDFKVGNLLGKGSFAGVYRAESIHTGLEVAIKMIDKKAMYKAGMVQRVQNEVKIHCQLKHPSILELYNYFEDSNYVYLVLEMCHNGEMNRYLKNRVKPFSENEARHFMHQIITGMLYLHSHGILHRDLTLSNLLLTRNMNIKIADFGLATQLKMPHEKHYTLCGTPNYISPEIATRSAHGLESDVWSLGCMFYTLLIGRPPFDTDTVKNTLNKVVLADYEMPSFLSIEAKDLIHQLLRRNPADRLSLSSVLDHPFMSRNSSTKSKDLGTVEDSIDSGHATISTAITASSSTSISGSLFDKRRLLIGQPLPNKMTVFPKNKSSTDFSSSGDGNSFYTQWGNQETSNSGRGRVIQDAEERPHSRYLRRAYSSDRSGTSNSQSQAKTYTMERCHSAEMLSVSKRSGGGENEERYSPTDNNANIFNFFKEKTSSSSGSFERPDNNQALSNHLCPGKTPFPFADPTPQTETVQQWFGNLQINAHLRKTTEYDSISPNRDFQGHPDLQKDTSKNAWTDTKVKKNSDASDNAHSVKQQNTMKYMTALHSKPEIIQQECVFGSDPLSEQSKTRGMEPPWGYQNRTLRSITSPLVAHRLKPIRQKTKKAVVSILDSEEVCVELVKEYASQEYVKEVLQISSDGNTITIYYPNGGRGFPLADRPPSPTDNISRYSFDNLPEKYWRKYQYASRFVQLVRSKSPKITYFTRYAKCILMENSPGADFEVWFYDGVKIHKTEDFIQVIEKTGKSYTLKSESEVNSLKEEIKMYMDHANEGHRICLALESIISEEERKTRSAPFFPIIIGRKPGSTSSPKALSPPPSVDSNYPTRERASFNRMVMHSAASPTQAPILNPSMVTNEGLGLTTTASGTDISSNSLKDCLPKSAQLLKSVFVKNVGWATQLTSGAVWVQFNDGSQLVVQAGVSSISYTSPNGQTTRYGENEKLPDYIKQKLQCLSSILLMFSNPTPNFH

[4] = target: Cyclin-dependent kinase 7 (Homo sapiens, UniProt P50613)
Sequence of Cyclin-dependent kinase 7 (P50613 whole entry): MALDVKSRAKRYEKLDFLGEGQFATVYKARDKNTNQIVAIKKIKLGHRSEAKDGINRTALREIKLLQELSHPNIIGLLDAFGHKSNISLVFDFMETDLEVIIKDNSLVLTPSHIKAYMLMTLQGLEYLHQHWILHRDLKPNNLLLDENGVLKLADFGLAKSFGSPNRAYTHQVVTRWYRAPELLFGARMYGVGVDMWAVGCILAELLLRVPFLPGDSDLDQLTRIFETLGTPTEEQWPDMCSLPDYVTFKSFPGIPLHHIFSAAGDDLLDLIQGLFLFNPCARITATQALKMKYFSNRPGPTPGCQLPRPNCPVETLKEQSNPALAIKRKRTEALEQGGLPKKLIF

[5] = target: T3, Mitogen-activated protein kinase kinase kinase kinase 2 (Homo sapiens, UniProt Q12851)
T3 sequence (Q12851 whole entry): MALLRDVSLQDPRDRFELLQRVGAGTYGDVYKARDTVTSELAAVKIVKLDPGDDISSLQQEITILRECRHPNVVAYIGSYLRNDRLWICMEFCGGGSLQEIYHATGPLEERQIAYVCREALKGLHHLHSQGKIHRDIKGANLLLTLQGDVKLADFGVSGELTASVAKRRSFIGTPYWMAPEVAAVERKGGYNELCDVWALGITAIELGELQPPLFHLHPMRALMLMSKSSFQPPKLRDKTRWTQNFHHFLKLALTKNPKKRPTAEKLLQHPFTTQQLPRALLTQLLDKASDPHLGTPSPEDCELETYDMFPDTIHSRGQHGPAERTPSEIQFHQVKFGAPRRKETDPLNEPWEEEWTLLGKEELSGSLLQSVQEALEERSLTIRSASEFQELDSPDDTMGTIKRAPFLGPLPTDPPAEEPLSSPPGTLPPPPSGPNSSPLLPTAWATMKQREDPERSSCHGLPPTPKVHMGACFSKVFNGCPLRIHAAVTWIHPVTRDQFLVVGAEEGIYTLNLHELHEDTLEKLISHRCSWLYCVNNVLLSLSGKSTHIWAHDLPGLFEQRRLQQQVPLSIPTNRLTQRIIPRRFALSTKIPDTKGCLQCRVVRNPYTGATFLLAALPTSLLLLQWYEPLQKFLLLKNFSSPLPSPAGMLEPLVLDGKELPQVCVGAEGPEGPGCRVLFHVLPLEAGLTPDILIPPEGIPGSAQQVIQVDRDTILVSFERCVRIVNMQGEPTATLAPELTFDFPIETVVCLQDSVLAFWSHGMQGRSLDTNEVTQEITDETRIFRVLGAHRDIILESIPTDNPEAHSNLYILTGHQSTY
Also: in the data inactive means no Kd found up to 30 µM.

Sequence of cAMP-dependent protein kinase catalytic subunit gamma (P22612 whole entry): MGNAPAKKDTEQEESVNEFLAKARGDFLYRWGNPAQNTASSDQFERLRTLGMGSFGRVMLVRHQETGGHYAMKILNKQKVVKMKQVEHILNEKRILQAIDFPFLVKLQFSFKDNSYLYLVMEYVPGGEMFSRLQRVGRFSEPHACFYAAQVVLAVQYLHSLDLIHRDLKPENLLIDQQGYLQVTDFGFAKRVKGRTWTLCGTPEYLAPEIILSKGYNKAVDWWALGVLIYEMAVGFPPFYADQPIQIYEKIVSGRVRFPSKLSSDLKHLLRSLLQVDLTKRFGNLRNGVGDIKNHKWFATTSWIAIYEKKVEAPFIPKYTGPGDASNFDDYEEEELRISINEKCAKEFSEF

Kd [1]	Kd (Glycine--tRNA ligase)	Kd [2]	Kd [3]	Kd [4]	Kd [5]	Structure (SMILES)
> 30 µM (inactive)	> 30 µM (inactive)	> 30 µM (inactive)	> 30 µM (inactive)	> 30 µM (inactive)	> 30 µM (inactive)	C=CC(=O)Nc1cccc(Nc2nc(Nc3ccc(N4CCN(C(C)=O)CC4)cc3OC)ncc2C(F)(F)F)c1 [ROCILETINIB]
> 30 µM (inactive)	> 30 µM (inactive)	> 30 µM (inactive)	> 30 µM (inactive)	7.12 µM (active)	> 30 µM (inactive)	O=C(O)c1ccc2c(c1)nc(Nc1cccc(Cl)c1)c1ccncc12 [SILMITASERTIB]
> 30 µM (inactive)	> 30 µM (inactive)	> 30 µM (inactive)	> 30 µM (inactive)	> 30 µM (inactive)	> 30 µM (inactive)	CC(C)(O)CC(=O)NCCn1ccc2ncnc(Nc3ccc(Oc4cccc(C(F)(F)F)c4)c(Cl)c3)c21 [TAK-285]
> 30 µM (inactive)	> 30 µM (inactive)	> 30 µM (inactive)	> 30 µM (inactive)	> 30 µM (inactive)	> 30 µM (inactive)	Cc1cc(C(=O)Nc2cc(Oc3ccc4nc(NC(=O)C5CC5)cn4n3)ccc2C)n(C)n1 [TAK-593]
> 30 µM (inactive)	> 30 µM (inactive)	> 30 µM (inactive)	> 30 µM (inactive)	> 30 µM (inactive)	> 30 µM (inactive)	O[C@H]1CC[C@H](Nc2ncc3nc(Nc4c(F)cc(F)cc4F)n([C@H]4CCOC4)c3n2)CC1 [TANZISERTIB]
> 30 µM (inactive)	> 30 µM (inactive)	> 30 µM (inactive)	> 30 µM (inactive)	> 30 µM (inactive)	> 30 µM (inactive)	CNC(=O)c1cc(COc2nnc(Nc3ccc(Cl)cc3)c3ccoc23)ccn1 [TELATINIB]
> 30 µM (inactive)	> 30 µM (inactive)	> 30 µM (inactive)	> 30 µM (inactive)	> 30 µM (inactive)	> 30 µM (inactive)	Cc1cc(-c2cc(OC(=O)c3ccccc3)ccc2Cl)cc2nnc(Nc3ccc(OCCN4CCCC4)cc3)nc12 [TG100-801]
> 30 µM (inactive)	> 30 µM (inactive)	> 30 µM (inactive)	> 30 µM (inactive)	> 30 µM (inactive)	> 30 µM (inactive)	C[C@@H]1COC(Nc2ccc3ncnc(Nc4ccc(OCc5nccs5)c(Cl)c4)c3c2)=N1 [VARLITINIB]
> 30 µM (inactive)	> 30 µM (inactive)	> 30 µM (inactive)	> 30 µM (inactive)	> 30 µM (inactive)	> 30 µM (inactive)	NC(=O)c1ccc(N(C(N)=O)c2c(F)cccc2F)nc1-c1ccc(F)cc1F [VX-702]
> 30 µM (inactive)	> 30 µM (inactive)	> 30 µM (inactive)	> 30 µM (inactive)	> 30 µM (inactive)	> 30 µM (inactive)	COc1cc2ncnc(Nc3ccc(O)cc3)c2cc1OC [WHI-P131]

Structure (SMILES)	Kd [1]	Kd (Glycine--tRNA ligase)	Kd [2]	Kd [3]	Kd [4]	Kd [5]
COCCN1CCN(Cc2ccc(-c3n[nH]c4c3C(=O)c3c(NC(=O)NN5CCOCC5)cccc3-4)cc2)CC1 [RGB-286638]	> 30 µM (inactive)	> 30 µM (inactive)	> 30 µM (inactive)	> 30 µM (inactive)	0.154 µM (active)	> 30 µM (inactive)
C=CCN(/C=C1/C(=O)O[C@H](COC)[C@@]2(C)C1=C(O)C(=O)C1=C2[C@H](OC(C)=O)C[C@]2(C)C(=O)CC[C@@H]12)CC=C [SONOLISIB]	0.007 µM	> 30 µM (inactive)	> 30 µM (inactive)	> 30 µM (inactive)	> 30 µM (inactive)	> 30 µM (inactive)
